Where two headings read alike, the source gives them in different places.
Key:
Assay in all cases: DiscoverX KINOMEscan kinase profiling (468 assays)
Assay type in all cases: binding
human kinome [1] = target: human kinome (Homo sapiens, UniProt Q59H18); settings: kinase TNNI3K (Entrez TNNI3K); compound concentration 1000 nM; read-out: Percent Control
Summary of the method: (§1)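 DNA-tagged kinases competed for immobilized biotinylated ligands on streptavidin magnetic beads, with bound kinase quantified by qPCR. VIP152 in DMSO was tested against a DMSO control.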

human kinome [2] = target: human kinome (Homo sapiens, UniProt P42336, I800L); settings: read-out: Percent Control
human kinome (Homo sapiens, UniProt P42336, I800L), sequence (P42336 whole entry I800L): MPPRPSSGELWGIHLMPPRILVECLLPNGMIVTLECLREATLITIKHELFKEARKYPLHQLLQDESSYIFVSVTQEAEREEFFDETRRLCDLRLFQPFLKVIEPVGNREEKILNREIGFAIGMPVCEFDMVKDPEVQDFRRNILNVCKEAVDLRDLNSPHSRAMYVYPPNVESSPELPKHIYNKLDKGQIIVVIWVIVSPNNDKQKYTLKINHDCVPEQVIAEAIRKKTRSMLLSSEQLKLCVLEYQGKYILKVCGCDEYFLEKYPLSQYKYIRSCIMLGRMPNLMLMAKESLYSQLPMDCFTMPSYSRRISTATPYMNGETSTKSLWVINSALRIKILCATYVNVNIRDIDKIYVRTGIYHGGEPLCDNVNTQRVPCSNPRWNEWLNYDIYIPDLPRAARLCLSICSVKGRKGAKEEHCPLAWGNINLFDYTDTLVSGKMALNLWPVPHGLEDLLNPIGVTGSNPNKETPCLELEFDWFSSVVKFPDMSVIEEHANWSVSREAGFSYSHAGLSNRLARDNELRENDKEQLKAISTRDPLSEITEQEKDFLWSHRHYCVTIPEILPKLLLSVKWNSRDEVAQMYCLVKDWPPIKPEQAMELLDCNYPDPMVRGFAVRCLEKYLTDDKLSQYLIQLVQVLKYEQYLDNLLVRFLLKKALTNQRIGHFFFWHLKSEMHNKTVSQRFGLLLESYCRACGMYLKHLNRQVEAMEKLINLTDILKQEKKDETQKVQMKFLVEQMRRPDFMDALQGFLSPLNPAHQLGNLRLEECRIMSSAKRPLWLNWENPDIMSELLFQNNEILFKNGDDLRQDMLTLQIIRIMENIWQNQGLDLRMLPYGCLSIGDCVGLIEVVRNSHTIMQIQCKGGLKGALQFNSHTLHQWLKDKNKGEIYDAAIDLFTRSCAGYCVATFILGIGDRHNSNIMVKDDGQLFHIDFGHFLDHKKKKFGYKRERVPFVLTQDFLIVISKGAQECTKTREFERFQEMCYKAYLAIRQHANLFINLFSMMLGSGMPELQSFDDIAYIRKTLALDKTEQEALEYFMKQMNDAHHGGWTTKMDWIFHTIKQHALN
Summary of the method: as §1

human kinome [3] = target: human kinome (Homo sapiens, UniProt Q2M2I8); settings: AAK1; 100 nM; read-out: Percent Control
Summary of the method: as §1

human kinome [4] = target: human kinome (Homo sapiens, UniProt Q8TDX7); settings: read-out: Percent Control
human kinome (Homo sapiens, UniProt Q8TDX7), sequence (Q8TDX7 whole entry): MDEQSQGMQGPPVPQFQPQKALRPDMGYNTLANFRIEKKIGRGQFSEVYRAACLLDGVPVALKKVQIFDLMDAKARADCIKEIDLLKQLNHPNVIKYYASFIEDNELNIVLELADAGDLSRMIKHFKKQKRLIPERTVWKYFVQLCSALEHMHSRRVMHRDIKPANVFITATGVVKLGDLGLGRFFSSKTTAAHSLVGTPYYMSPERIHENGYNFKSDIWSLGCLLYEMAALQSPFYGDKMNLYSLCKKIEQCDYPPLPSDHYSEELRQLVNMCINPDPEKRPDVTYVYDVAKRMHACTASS
Summary of the method: as §1

human kinome [5] = target: human kinome (Homo sapiens, UniProt P10721, D816H); settings: KIT(D816H); 100 nM; read-out: Percent Control
Summary of the method: as §1

human kinome [6] = target: human kinome (Homo sapiens, UniProt P00533); settings: EGFR; 100 nM; read-out: Percent Control
Summary of the method: as §1

human kinome [7] = target: human kinome (Homo sapiens, UniProt P36888); settings: 100 nM, read-out: Percent Control
human kinome (Homo sapiens, UniProt P36888), sequence (P36888 27-993): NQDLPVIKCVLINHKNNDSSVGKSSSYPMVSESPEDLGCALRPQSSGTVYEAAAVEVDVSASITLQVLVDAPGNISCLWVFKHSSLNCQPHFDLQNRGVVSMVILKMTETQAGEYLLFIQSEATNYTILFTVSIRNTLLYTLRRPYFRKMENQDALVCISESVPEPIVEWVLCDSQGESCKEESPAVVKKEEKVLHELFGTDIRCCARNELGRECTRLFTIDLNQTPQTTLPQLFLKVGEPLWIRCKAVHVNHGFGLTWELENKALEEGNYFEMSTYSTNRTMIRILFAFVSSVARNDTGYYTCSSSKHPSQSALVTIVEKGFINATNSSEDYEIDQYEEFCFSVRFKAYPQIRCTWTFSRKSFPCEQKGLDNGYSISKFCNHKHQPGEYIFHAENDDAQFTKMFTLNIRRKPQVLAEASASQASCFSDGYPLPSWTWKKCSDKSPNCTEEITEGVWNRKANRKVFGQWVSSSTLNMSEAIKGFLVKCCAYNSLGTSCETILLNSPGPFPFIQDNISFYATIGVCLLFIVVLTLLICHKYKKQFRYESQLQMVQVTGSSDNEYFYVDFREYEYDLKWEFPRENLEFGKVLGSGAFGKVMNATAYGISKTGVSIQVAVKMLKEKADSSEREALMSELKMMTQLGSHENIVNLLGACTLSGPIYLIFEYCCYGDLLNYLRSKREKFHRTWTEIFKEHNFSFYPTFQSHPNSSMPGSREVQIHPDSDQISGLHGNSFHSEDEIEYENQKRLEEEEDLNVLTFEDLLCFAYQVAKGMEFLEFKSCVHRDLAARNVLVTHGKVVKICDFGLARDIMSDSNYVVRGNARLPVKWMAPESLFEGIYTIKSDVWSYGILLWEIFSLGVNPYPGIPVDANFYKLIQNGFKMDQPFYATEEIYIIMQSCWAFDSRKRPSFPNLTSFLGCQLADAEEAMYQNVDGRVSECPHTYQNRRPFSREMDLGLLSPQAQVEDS
Summary of the method: as §1

human kinome [8] = target: human kinome (Homo sapiens, UniProt O14976); settings: GAK; 100 nM; read-out: Percent Control
Summary of the method: as §1

human kinome [9] = target: human kinome (Homo sapiens, UniProt Q86UE8); settings: kinase TLK2 (Entrez TLK2); compound concentration 1000 nM; read-out: Percent Control
Summary of the method: as §1

human kinome [10] = target: human kinome (Homo sapiens, UniProt P41240); settings: CSK; 100 nM; read-out: Percent Control
Summary of the method: as §1

human kinome [11] = target: human kinome (Homo sapiens, UniProt Q96J92); settings: kinase WNK4 (Entrez WNK4); compound concentration 1000 nM; read-out: Percent Control
Summary of the method: as §1

human kinome [12] = target: human kinome (Homo sapiens, UniProt P00533, L858R/T790M); settings: EGFR(L858R,T790M); 100 nM; read-out: Percent Control
Summary of the method: as §1

human kinome [13] = target: human kinome (Homo sapiens, UniProt O75914); settings: read-out: Percent Control
human kinome (Homo sapiens, UniProt O75914), sequence (O75914 whole entry): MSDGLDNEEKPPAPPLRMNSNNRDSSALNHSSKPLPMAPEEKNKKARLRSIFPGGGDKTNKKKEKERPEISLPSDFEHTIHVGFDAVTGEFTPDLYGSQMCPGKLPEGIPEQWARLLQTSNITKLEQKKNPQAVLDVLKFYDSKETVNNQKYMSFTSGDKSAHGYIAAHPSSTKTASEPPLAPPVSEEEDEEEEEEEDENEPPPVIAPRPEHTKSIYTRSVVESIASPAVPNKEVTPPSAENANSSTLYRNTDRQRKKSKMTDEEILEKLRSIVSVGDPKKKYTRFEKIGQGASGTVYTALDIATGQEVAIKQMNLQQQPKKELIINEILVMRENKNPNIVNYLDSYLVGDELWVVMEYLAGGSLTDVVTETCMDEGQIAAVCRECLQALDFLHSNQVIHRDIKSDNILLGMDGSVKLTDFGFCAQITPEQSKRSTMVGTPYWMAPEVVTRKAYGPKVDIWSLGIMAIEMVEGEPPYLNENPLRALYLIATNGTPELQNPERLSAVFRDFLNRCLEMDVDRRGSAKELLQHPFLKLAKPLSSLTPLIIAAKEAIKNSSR
Summary of the method: as §1

human kinome [14] = target: human kinome (Homo sapiens, UniProt P19784); settings: CSNK2A2; 100 nM; read-out: Percent Control
Summary of the method: as §1

human kinome [15] = target: human kinome (Homo sapiens, UniProt Q9UEW8); settings: kinase STK39 (Entrez STK39); compound concentration 1000 nM; read-out: Percent Control
Summary of the method: as §1

human kinome [16] = target: human kinome (Homo sapiens, UniProt Q9HBH9); settings: MKNK2; 100 nM; read-out: Percent Control
Summary of the method: as §1

human kinome [17] = target: human kinome (Homo sapiens, UniProt Q8N4C8); settings: MINK (Entrez MINK1); 100 nM; read-out: Percent Control
Summary of the method: as §1

human kinome [18] = target: human kinome (Homo sapiens, UniProt Q8IW41); settings: MAPKAPK5; 100 nM; read-out: Percent Control
Summary of the method: as §1

human kinome [19] = target: human kinome (Homo sapiens, UniProt Q8NE63); settings: HIPK4; 100 nM; read-out: Percent Control
Summary of the method: as §1

human kinome [20] = target: human kinome (Homo sapiens, UniProt P43405); settings: kinase SYK (Entrez SYK); compound concentration 1000 nM; read-out: Percent Control
Summary of the method: as §1

human kinome [21] = target: human kinome (Homo sapiens, UniProt Q9UKE5); settings: kinase TNIK (Entrez TNIK); compound concentration 1000 nM; read-out: Percent Control
Summary of the method: as §1

human kinome [22] = target: human kinome (Homo sapiens, UniProt P35626); settings: GRK3 (Entrez ADRBK2); 100 nM; read-out: Percent Control
Summary of the method: as §1

human kinome [23] = target: human kinome (Homo sapiens, UniProt O96013); settings: read-out: Percent Control
human kinome (Homo sapiens, UniProt O96013), sequence (O96013 whole entry): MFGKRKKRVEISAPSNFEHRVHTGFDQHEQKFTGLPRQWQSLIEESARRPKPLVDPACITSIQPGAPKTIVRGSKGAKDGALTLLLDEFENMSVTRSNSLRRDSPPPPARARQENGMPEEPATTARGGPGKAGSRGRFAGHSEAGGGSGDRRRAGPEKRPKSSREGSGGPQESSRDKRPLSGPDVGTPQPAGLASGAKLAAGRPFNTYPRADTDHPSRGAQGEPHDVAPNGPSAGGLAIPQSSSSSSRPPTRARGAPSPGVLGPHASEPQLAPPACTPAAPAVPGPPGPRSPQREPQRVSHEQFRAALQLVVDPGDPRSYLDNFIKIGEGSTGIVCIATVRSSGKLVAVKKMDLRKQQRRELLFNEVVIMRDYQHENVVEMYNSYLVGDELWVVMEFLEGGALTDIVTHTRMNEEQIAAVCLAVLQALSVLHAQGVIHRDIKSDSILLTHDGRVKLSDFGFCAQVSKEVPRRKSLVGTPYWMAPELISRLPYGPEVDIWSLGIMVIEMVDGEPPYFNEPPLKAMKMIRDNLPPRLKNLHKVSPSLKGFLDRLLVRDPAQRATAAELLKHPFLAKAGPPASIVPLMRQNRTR
Summary of the method: as §1

human kinome [24] = target: human kinome (Homo sapiens, UniProt P42680); settings: kinase TEC (Entrez TEC); compound concentration 1000 nM; read-out: Percent Control
Summary of the method: as §1

human kinome [25] = target: human kinome (Homo sapiens, UniProt P00533, G719S); settings: EGFR(G719S); 100 nM; read-out: Percent Control
Summary of the method: as §1

human kinome [26] = target: human kinome (Homo sapiens, UniProt P23458); settings: 100 nM, read-out: Percent Control
Summary of the method: as §1

human kinome [27] = target: human kinome (Homo sapiens, UniProt P19525); settings: read-out: Percent Control
human kinome (Homo sapiens, UniProt P19525), sequence (P19525 whole entry): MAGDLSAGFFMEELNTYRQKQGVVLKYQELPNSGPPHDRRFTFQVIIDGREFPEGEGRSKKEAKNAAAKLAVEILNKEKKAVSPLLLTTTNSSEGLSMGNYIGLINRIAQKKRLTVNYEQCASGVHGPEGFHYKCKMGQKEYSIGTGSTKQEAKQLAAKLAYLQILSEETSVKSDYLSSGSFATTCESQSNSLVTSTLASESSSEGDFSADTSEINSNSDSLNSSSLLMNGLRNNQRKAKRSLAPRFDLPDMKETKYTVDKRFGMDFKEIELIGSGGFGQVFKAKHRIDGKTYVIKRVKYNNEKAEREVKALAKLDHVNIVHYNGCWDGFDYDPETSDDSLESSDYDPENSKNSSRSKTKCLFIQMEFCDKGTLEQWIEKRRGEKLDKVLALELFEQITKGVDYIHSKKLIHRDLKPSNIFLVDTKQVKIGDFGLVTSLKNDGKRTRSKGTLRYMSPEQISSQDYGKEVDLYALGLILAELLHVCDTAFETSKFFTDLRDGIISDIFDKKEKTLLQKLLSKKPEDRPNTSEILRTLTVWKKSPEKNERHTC
Summary of the method: as §1

human kinome [28] = target: human kinome (Homo sapiens, UniProt O75385); settings: kinase ULK1 (Entrez ULK1); compound concentration 1000 nM; read-out: Percent Control
Summary of the method: as §1

human kinome [29] = target: human kinome (Homo sapiens, UniProt Q9HAZ1); settings: CLK4; 100 nM; read-out: Percent Control
Summary of the method: as §1

human kinome (Homo sapiens, UniProt Q59H18), sequence (Q59H18 whole entry): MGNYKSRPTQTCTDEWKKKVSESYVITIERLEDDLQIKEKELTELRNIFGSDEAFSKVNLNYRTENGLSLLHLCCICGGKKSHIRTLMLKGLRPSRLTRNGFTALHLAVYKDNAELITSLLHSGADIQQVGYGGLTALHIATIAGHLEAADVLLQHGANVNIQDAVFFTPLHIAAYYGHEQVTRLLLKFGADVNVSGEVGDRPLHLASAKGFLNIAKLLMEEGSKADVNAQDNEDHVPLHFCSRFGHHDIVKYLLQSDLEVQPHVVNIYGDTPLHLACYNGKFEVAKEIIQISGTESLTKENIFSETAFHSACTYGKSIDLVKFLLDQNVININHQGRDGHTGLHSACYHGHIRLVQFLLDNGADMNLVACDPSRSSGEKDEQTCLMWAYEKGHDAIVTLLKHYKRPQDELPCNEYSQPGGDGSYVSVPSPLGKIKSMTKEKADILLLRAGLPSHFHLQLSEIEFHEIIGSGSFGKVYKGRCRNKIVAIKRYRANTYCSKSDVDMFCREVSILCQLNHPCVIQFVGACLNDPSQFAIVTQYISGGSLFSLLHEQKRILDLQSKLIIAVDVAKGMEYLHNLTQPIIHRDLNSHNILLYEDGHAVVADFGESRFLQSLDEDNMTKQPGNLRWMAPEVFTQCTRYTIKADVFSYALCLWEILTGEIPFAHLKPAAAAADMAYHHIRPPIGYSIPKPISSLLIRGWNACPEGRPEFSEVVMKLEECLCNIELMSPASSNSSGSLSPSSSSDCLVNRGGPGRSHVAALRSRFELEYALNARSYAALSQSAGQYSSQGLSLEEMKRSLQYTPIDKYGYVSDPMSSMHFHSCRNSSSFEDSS

Q: How did the remaining binding at 1 µM (human kinome [1]) turn out when `COc1cc(F)ccc1-c1cc(Nc2cc(CS(C)(=N)=O)ccn2)ncc1F` (stereo not drawn) [VIP152] was run?
A: Its remaining binding at 1 µM is 27%.

Q: And the remaining binding at 0.1 µM (human kinome [2]; PIK3CA(I800L), 100 nM)?
A: Its remaining binding at 0.1 µM is 100%.

Q: What about the remaining binding at 1 µM (human kinome [2]; kinase PIK3CA(I800L) (Entrez PIK3CA), compound concentration 1000 nM) of the same compound?
A: Its remaining binding at 1 µM is 98%.

Q: And the remaining binding at 0.1 µM (human kinome [3])?
A: Its remaining binding at 0.1 µM is 100%.

Q: What about the remaining binding at 0.1 µM (human kinome [4]; NEK7, 100 nM) of the same compound?
A: The remaining binding at 0.1 µM was 100%.

Q: And the remaining binding at 1 µM (human kinome [4]; kinase NEK7 (Entrez NEK7), compound concentration 1000 nM)?
A: The remaining binding at 1 µM was 94%.

Q: What about the remaining binding at 0.1 µM (human kinome [5]) of the same compound?
A: The remaining binding at 0.1 µM was 100%.

Q: What about the remaining binding at 0.1 µM (human kinome [6]) of the same compound?
A: Its remaining binding at 0.1 µM is 100%.

Q: What about the remaining binding at 0.1 µM (human kinome [7]; FLT3-autoinhibited) of the same compound?
A: Its remaining binding at 0.1 µM is 99%.

Q: And the remaining binding at 0.1 µM (human kinome [7]; FLT3)?
A: The remaining binding at 0.1 µM was 72%.

Q: And the remaining binding at 0.1 µM (human kinome [8])?
A: Its remaining binding at 0.1 µM is 79%.

Q: What about the remaining binding at 1 µM (human kinome [9]) of the same compound?
A: The remaining binding at 1 µM was 98%.

Q: What about the remaining binding at 0.1 µM (human kinome [10]) of the same compound?
A: The remaining binding at 0.1 µM was 100%.

Q: And the remaining binding at 1 µM (human kinome [11])?
A: The remaining binding at 1 µM was 80%.

Q: And the remaining binding at 0.1 µM (human kinome [12])?
A: The remaining binding at 0.1 µM was 93%.

Q: What about the remaining binding at 0.1 µM (human kinome [13]; PAK3, 100 nM) of the same compound?
A: Its remaining binding at 0.1 µM is 100%.

Q: What about the remaining binding at 1 µM (human kinome [13]; kinase PAK3 (Entrez PAK3), compound concentration 1000 nM) of the same compound?
A: The remaining binding at 1 µM was 62%.

Q: And the remaining binding at 0.1 µM (human kinome [14])?
A: The remaining binding at 0.1 µM was 100%.

Q: What about the remaining binding at 1 µM (human kinome [15]) of the same compound?
A: The remaining binding at 1 µM was 92%.

Q: And the remaining binding at 0.1 µM (human kinome [16])?
A: The remaining binding at 0.1 µM was 95%.

Q: And the remaining binding at 0.1 µM (human kinome [17])?
A: Its remaining binding at 0.1 µM is 100%.

Q: What about the remaining binding at 0.1 µM (human kinome [18]) of the same compound?
A: The remaining binding at 0.1 µM was 100%.

Q: What about the remaining binding at 0.1 µM (human kinome [19]) of the same compound?
A: The remaining binding at 0.1 µM was 100%.

Q: And the remaining binding at 1 µM (human kinome [20])?
A: The remaining binding at 1 µM was 38%.

Q: And the remaining binding at 1 µM (human kinome [21])?
A: The remaining binding at 1 µM was 32%.

Q: What about the remaining binding at 0.1 µM (human kinome [22]) of the same compound?
A: The remaining binding at 0.1 µM was 89%.

Q: What about the remaining binding at 0.1 µM (human kinome [23]; PAK4, 100 nM) of the same compound?
A: The remaining binding at 0.1 µM was 100%.

Q: What about the remaining binding at 1 µM (human kinome [23]; kinase PAK4 (Entrez PAK4), compound concentration 1000 nM) of the same compound?
A: Its remaining binding at 1 µM is 89%.

Q: And the remaining binding at 1 µM (human kinome [24])?
A: The remaining binding at 1 µM was 100%.

Q: And the remaining binding at 0.1 µM (human kinome [25])?
A: The remaining binding at 0.1 µM was 100%.

Q: And the remaining binding at 0.1 µM (human kinome [26]; JAK1(JH1domain-catalytic))?
A: The remaining binding at 0.1 µM was 87%.

Q: And the remaining binding at 0.1 µM (human kinome [26]; JAK1(JH2domain-pseudokinase))?
A: The remaining binding at 0.1 µM was 100%.

Q: And the remaining binding at 0.1 µM (human kinome [27]; PRKR (Entrez EIF2AK2), 100 nM)?
A: Its remaining binding at 0.1 µM is 100%.

Q: And the remaining binding at 1 µM (human kinome [27]; kinase PRKR (Entrez EIF2AK2), compound concentration 1000 nM)?
A: The remaining binding at 1 µM was 100%.

Q: And the remaining binding at 1 µM (human kinome [28])?
A: Its remaining binding at 1 µM is 90%.

Q: And the remaining binding at 0.1 µM (human kinome [29])?
A: Its remaining binding at 0.1 µM is 100%.
